According to patent US4520134A, “N-alkyl-4'-hydroxyacetanilides, pharmaceutical compositions comprising them and their use” (priority 1984, dated 1985):
Where two headings read alike, the source gives them in different places.

Tests used:
[1] = hot plate test (Ankier), time to lick a back paw; assay type: in vivo, mice; details: 30 mg/kg i.p.; for average time before licking a back paw: 10 minutes after dose, plate 54° C., untreated control 44 seconds
Experimental: Two groups of mice, six mice per group, were used in the hot plate test described by S. I. Ankier European Journal of Pharmacology 27:1-4 (1974). The control group, which was untreated, at a plate temperature of 54° C. took an average of 44 seconds to lick a back paw. The test group received a dose of N-ethyl-4'-hydroxyacetanilide (30 mg/kg) administered intraperitoneally, and when placed on the hot plate at 54° C. 10 minutes later, shown an average time of 64 seconds before licking a back paw. The analgesic activity of this compound thus increased the pain-response time by almost 50 percent.
The analgesic properties of N-isopropylacetaminophen were tested using the hot plate test described by Ankier (Eur. J. Pharmacol. 27: 1-(1974)). Two groups of mice, 6 animals/group were used. The first group was placed on the hot plate, individually, and time need to lick the back paw was recorded and found to be 44 seconds (average) at 54° C. The second group of mice each received 30 mg/kg (i.p.) N-isopropylacetaminophen and after 10 minutes placed on the hot plate at 54° C. The time required to lick the rear paw was measured and found to be 64 seconds (average), thus increased response time by 50%.

[2] = 1894 paper, without supporting data; cited from earlier work
[3] = 1894 paper; cited from earlier work
[4] = cited from earlier work; for protection against acetaminophen toxicity: free radical scavengers; for effect on acetaminophen hepatotoxicity: Kelleher et al.; for protective effect against paracetamol: 300 mg/kg, 450 mg/kg paracetamol orally
[5] = administered up to one hour after acute toxic amounts of acetaminophen; cited from earlier work
[6] = mouse, in vivo; cited from earlier work
[7] = vitamin E deficient rats; cited from earlier work
[8] = test system: cytochrome P-450; details: cited from earlier work
[9] = toxicity of N-isopropylacetaminophen, histopathology of liver, kidney and lung; assay type: in vivo, mice; details: 100-400 mg/kg i.p.; 24 hours
Experimental: (§1) The toxicity of N-isopropylacetaminophen was evaluated by injecting mice with this compound at various doss from 100-400 mg/kg, i.p.) and 24 hours later, the animals were sacrificed and histopathology was determined for the liver, kidney and lung.

[10] = CNS sedation by N-isopropylacetaminophen; assay type: in vivo, mice
Experimental: as §1
The higher the dose, the longer the sedation. This was also found to be the case when mice were given the drug orally, except the dose needed to give the same sedative activity was higher (400-600 mg/kg, oral). This sedative effect of the drug lasted from 30 min. at 250 mg/kg to approximately 1.5 hr at 400 mg/kg. At the higher dose, the mice went to sleep.

[11] = therapeutically recommended doses for extended periods of time; cited from earlier work
[12] = mouse, in vivo, cited from earlier work
[13] = mouse, in vivo
[14] = man; cited from earlier work
[15] = enhancement of acetaminophen hepatotoxicity (applicant's finding); details: in vivo
[16] = administered within 16 hours after an overdose; cited from earlier work
[17] = chronic use; cited from earlier work
[18] = 500 mg/kg i.p. in propylene glycol

Compound: CCN(C(C)=O)c1ccc(O)cc1 [N-ethyl-4'-hydroxyacetanilide]
- duration of sedative effects [18]: about one-half
- sedative effects [18]: sedative effects
- time to ataxia of the hind legs [18]: about 15 minutes
- time to drowsiness [18]: about 25 minutes
- duration of sleep (600 mg/kg oral, aqueous vehicle, pH 12): 25 to 40 min
- average time before licking a back paw [1]: 64 s
- increase in pain-response time ([1]; vs untreated control, 54° C.): ~50%
- analgesic properties [2]: no analgesic properties
- antipyretic activity [3]: no antipyretic activity

Compound: selenium
- protection against acetaminophen hepatotoxicity ([4]; man and experimental animals): varying degrees of protection

Compound: NCCS [cysteamine]
- protection against acetaminophen hepatotoxicity ([4]; man and experimental animals): varying degrees of protection

Compound: C[S+](C)[O-] [DMSO, Dimethyl sulfoxide]
- protection against hepatotoxic effects of acetaminophen [5]: protect mice against the hepatotoxic effects of acetaminophen
- protection against CCl4 hepatotoxicity [6]: inability of DMSO to protect mice against CCl4 hepatotoxicity

Compound: N[C@@H](CS)C(=O)O [cysteine]
- protection against acetaminophen hepatotoxicity ([4]; man and experimental animals): varying degrees of protection

Compound: CC(CN1c2ccccc2Sc2ccccc21)N(C)C (centres unmarked) [promethazine]
- protection against acetaminophen toxicity [4]: afford protection against acetaminophen toxicity

Compound: Cc1c(C)c2c(c(C)c1O)CCC(C)(CCCC(C)CCCC(C)CCCC(C)C)O2 (stereo not drawn) [vitamin E, α-tocopherol]
- protection against acetaminophen hepatotoxicity [7]: protects vitamin E deficient rats
- effect on acetaminophen hepatotoxicity [4]: reduce heptatotoxicity
- protection against acetaminophen hepatotoxicity ([4]; man and experimental animals): varying degrees of protection

Compound: CCC1(c2ccccc2)C(=O)NC(=O)NC1=O [phenobarbital]
- induction of cytochrome P-450 [8]: well-known cytochrome P-450 inducer

Compound: CC(=O)N(c1ccc(O)cc1)C(C)C [N-isopropylacetaminophen, N-isopropyl-4'-hydroxyacetanilide]
- average time before licking a back paw [1]: 64 s
- increase in response time ([1]; vs untreated control, 54° C.): 50%
- histopathology of liver, kidney and lung [9]: no organ showed any signs of injury
- duration of sedative effect ([10]; 250 mg/kg): 30 min
- duration of sedative effect ([10]; 400 mg/kg): approximately 1.5 hr
- CNS sedation ([10]; 250-400 mg/kg i.p.): significant CNS sedation
- additional CNS effects after recovery from sedation ([10]; after recovery): no additional CNS effects were observed
- sleep ([10]; higher dose): went to sleep
- dose giving significant CNS sedation in all mice ([10]; i.p.): 250 to 400 mg/kg
- dose needed to give the same sedative activity ([10]; oral): 400 to 600 mg/kg

Compound: CC(=O)Nc1ccc(O)cc1 [acetaminophen]
- immediate symptomatic effects (mouse, in vivo): No immediate symptomatic effects
- hepatotoxicity on chronic ingestion [11]: massive hepatic necrosis
- oral LD50 ([12]; po): about 400 mg/kg
- hepatotoxicity at the oral LD50 dose [12]: severe hepatotoxicity
- fraction of the liver necrotic (estimated) [13]: ~60%
- liver histopathology [13]: severe hepatic necrosis

Compound: O=C1O[C@H]([C@@H](O)CO)C(O)=C1O [ascorbic acid]
- protective effect against paracetamol ([4]; nonsustained release form): no protective effect
- protective effect against paracetamol ([4]; sustained release form): substantial protective effect
- protection against acetaminophen hepatotoxicity ([4]; animal studies): may also provide such protection
- apparent half-life of acetaminophen [14]: did not affect the apparent half-life
- excretion rate of acetaminophen sulfate [14]: rapid and pronounced decrease

Compound: Cc1cc(C(C)(C)C)c(O)c(C(C)(C)C)c1 [BHT, butylated hydroxytoluene]
- effect on acetaminophen hepatotoxicity [15]: profoundly enhance its hepatotoxicity

Compound: CN(C)CCO [β-dimethylaminoethanol]
- protection against acetaminophen toxicity [4]: afford protection against acetaminophen toxicity

Compound: COc1ccc(O)c(C(C)(C)C)c1 [BHA, butylated hydroxyanisole]
- effect on acetaminophen hepatotoxicity [15]: profoundly enhance its hepatotoxicity

Compound: CC1NC(C(=O)O)CS1 (centres unmarked) [2-methylthiazolidine-4-carboxylic acid]
- protection against hepatotoxins ([4]; forms cysteine in the liver): can also protect against heptotoxins

Compound: N[C@@H](CCC(=O)N[C@@H](CS)C(=O)NCC(=O)O)C(=O)O [glutathione]
- protection against acetaminophen toxicity [4]: afford protection against acetaminophen toxicity

Compound: CCCOC(=O)c1cc(O)c(O)c(O)c1 [propyl gallate]
- effect on acetaminophen hepatotoxicity [4]: reduce heptatotoxicity

Compound: CSCC[C@H](N)C(=O)O [methionine]
- protection against acetaminophen hepatotoxicity ([4]; man and experimental animals): varying degrees of protection

Compound: CC(=O)N[C@@H](CS)C(=O)O [N-acetylcysteine]
- prevention of hepatotoxicity [16]: effective in preventing hepatotoxicity

Compound: CCO [ethanol]
- effect on acetaminophen-mediated hepatotoxicity [17]: markedly increased
- induction of cytochrome P-450 [8]: demonstrated to induce cytochrome P-450
